The target of this experiment is T1, mUSP18 (Mus musculus, UniProt Q9WTV6).
T1 construct: (46-368); His-tag (N); made in house
T1 sequence (Q9WTV6 46-368): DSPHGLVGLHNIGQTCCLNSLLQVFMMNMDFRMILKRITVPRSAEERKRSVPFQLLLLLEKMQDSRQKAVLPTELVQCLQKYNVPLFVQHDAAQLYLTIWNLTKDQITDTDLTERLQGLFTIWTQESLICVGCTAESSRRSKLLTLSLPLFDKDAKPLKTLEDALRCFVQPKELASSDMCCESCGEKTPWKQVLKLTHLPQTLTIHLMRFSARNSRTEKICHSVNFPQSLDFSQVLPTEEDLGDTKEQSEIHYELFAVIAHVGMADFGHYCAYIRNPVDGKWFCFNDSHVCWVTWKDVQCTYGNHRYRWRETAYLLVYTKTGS
Put plainly: High-throughput screening, ISG15ct-RhoMP, single dose 1.25 µM. It counts as biochemical, murine.

The mark [1] stands for this setting: mUSP18 %inhibition, carboxylic acid (CA) building block alone, read-out: %inh CA only.
Where [2] appears, read: mUSP18 %inhibition, carboxylic acid (CA) with coupling reagents DIC/HOBT, read-out: %inh CA + DIC/HOBT.

Where two headings read alike, the source gives them in different places.

Regarding `O=C(O)C1CC1` [CA077], the inhibition at 1.25 µM under setting [1] is -6.84% and the inhibition at 1.25 µM under setting [2] is -14.4%.
As for `O=C(O)CC1C(=O)Nc2ccccc21` (stereo not drawn) [CA078], the inhibition at 1.25 µM under setting [1] was -7.04% and the inhibition at 1.25 µM under setting [2] is -14.2%.
`CC(=O)C(=O)O` [CA079]: the inhibition at 1.25 µM by setting is: under setting [1], -7.45%; under setting [2], -14.4%.
For `COCC(=O)O` [CA080] the same measures were -8.74% and -15.7%.
With `O=C(O)c1cnccn1` [CA081], the “%inh CA only” value (mUSP18 %inhibition, carboxylic acid (CA) building block alone) is reported as -6.50%. Further, the “%inh CA + DIC/HOBT” value (mUSP18 %inhibition, carboxylic acid (CA) with coupling reagents DIC/HOBT) is reported as -13.28%.
Turning to `Cc1ncc(C(=O)O)s1` [CA082], the inhibition at 1.25 µM is, setting by setting: under setting [1], -10.3%; under setting [2], -14.8%.
On to `O=C(O)c1ccc2c(c1)OCO2` [CA083], for which the inhibition at 1.25 µM under setting [1] was -4.98% and the inhibition at 1.25 µM under setting [2] is -14.2%.
On to `O=C(O)c1ccc2c(c1)ncn2C1CCCCO1` (stereo not drawn) [CA084], for which the inhibition at 1.25 µM runs as follows: under setting [1], -10.2%; under setting [2], -14.9%.
`CN1CCN(c2ccc(C(=O)O)cc2)CC1` [CA085]: the inhibition at 1.25 µM was 5.37% under setting [1] and -9.79% under setting [2].
The corresponding values for `O=C(O)c1ccc(N2CCOCC2)cc1` [CA086] are 2% and 15.8%.
For `CN1CCC(C(=O)O)CC1` [CA087] the same measures were -3.93% and -14.3%.
As to `CC(=O)N1CCC(C(=O)O)CC1` [CA088], the inhibition at 1.25 µM is, setting by setting: under setting [1], -2.57%; under setting [2], -12.6%.
With `O=C(O)C1CCN(c2ncccn2)CC1` [CA089], the inhibition at 1.25 µM under setting [1] was -4.93% and the inhibition at 1.25 µM under setting [2] is -12.3%.
For `O=C(O)c1nc(N2CCCC2)ncc1Cl` [CA090] the same measures were 23.1% and 14.2%.
The corresponding values for `O=C(O)C(Cc1c[nH]cn1)NS(=O)(=O)c1ccc(Cl)cc1` (stereo not drawn) [CA091] are 20.4% and 8.3%.
In the case of `O=C(O)Cc1csc(-c2cnccn2)n1` [CA092], the inhibition at 1.25 µM stood at 15.3% under setting [1] and 13.1% under setting [2].
As for `O=C(O)CCN(Cc1ccccc1)S(=O)(=O)c1c(Cl)cccc1Cl` [CA093], the inhibition at 1.25 µM by setting is: under setting [1], 18.6%; under setting [2], 13.9%.
For `O=C(O)c1ncoc1-c1cccs1` [CA094] the same measures were 14.4% and 10.3%.
Take `O=C(O)c1cccc(S(=O)(=O)NCc2cccs2)c1` [CA095]: the inhibition at 1.25 µM is, setting by setting: under setting [1], 14.6%; under setting [2], 10.3%.
In the case of `Cc1ccc(-n2c(C)ccc2C)c(C(=O)O)c1` [CA96], the inhibition at 1.25 µM under setting [1] was 74.4% and the inhibition at 1.25 µM under setting [2] stood at 60%. The “inhibition of mUSP18 by individual CA's and coupling reagents” value (screened with and without DIC/HOBt) is given as “could inhibit mUSP18”.
Turning to `O=C(O)Cc1csc(COc2ccc(Cl)cc2)n1` [CA097], the inhibition at 1.25 µM runs as follows: under setting [1], 15.8%; under setting [2], 12.5%.
The corresponding values for `O=C(O)Cc1cc(-c2ccccc2)on1` [CA098] are 21.6% and 14.7%.
With `O=C(O)Cc1ccc(S(=O)(=O)N2CCCC2)s1` [CA099], the inhibition at 1.25 µM reads like this: under setting [1], 21.7%; under setting [2], 15.6%.
The corresponding values for `CN(C(=O)c1cccs1)c1ccccc1C(=O)O` [CA100] are 16.4% and 10.5%.
With `CN1CCN(c2ccccc2C(=O)O)CC1` [CA101], the inhibition at 1.25 µM is, setting by setting: under setting [1], 13.5%; under setting [2], 12.2%.
The corresponding values for `Cn1cc(-c2ocnc2C(=O)O)cn1` [CA102] are 12.6% and 14.3%.
For `NS(=O)(=O)c1ccc(-c2cccc(C(F)(F)F)c2)c(C(=O)O)c1` [CA103] the same measures were 11.4% and 12.3%.
For `O=C(O)c1cnoc1-c1cccs1` [CA104] the same measures were 12.4% and 34%.

The values are drawn from paper PMC12668310, “High‐Throughput Synthesis and Screening of a Cyanimide Library Identifies Selective Inhibitors of ISG15‐Specific Protease mUSP18” (Angewandte Chemie (International Ed. in English), 2025).
